Literature values, collected in patent US5271935A, “Antibiotic, cammunocin, a process for the preparation thereof, and the use thereof as a pharmaceutical” (Hoechst Aktiengesellschaft, priority 1988, dated 1993).

Tested on: Gram-positive bacteria
Conditions: other known antibiotics

amphomycin
requirement for calcium ions to show an antibiotic effect: 1.0 mM
